From US20210038579A1, “Treatment Of Patients With Classic Fabry Disease” (Amicus Therapeutics, Inc., priority 2018, published 2021)
Where a chain is given by its changes, count along the chain named.

How the values were obtained:
[1] = Phase 3 study, ERT-naïve Fabry patients: Gastrointestinal Symptoms Rating Scale for Diarrhea (GSRS-D); format: in vivo, human; conditions: for mean change in GSRS-D: total amenable patient population
Experimental: Patient Enrollment. […] Study Design. […] Patient-Reported Outcomes. Patient-reported outcomes were assessed using the Gastrointestinal-Symptoms-Rating-Scale (GSRS), Short Form-36v2TM and Brief-Pain-Inventory-Pain-Severity-Component. For all outcomes except GL-3 inclusions per kidney interstitial capillary, data are pooled for patients within phenotype subgroups regardless of treatment allocation for the first six months (migalastat or placebo).

[2] = Phase 3 study, ERT-naïve Fabry patients: renal function assessment (eGFRCKD-EPI, mGFRiohexol); format: in vivo, human
Experimental: Patient Enrollment. […] Study Design. […] Renal Function Assessment. Annualized rates of change (mL/min/1.73 m^2/year) were calculated using Chronic Kidney Disease Epidemiology Collaboration-[…]) and measured iohexol clearance-mGFRiohexol). For all outcomes except GL-3 inclusions per kidney interstitial capillary, data are pooled for patients within phenotype subgroups regardless of treatment allocation for the first six months (migalastat or placebo).

[3] = human, in vivo
Experimental: (§2) Study Design. Following eligibility-baseline assessments (2 months), patients were randomized to Stage 1—6 months of double-blind administration of 150 mg migalastat hydrochloride or placebo every other day. All patients completing Stage 1 were eligible to receive open-label migalastat in Stage 2 (months 6-12) and for an additional year (months 13-24) thereafter. […] Study completers were eligible to enroll in the open-label extension study for up to 5 years.
(§3) Safety Analysis and Adverse Events. Randomized patients receiving ≤1 dose were included in the safety analysis, which comprised vital signs, physical exams, electrocardiograms, clinical labs, and adverse events.

[4] = target: T1, α-Gal A mutant form p.Ile270Thr (c.809 T > C) (Homo sapiens, UniProt P06280, I270T); experiment: HEK assay: α-Gal A activity in HEK-293 cell lysate with migalastat; format: cell-based
T1 construct: expressed in transfected cells; host or cells: HEK-293
T1 sequence (P06280 32-429 I270T): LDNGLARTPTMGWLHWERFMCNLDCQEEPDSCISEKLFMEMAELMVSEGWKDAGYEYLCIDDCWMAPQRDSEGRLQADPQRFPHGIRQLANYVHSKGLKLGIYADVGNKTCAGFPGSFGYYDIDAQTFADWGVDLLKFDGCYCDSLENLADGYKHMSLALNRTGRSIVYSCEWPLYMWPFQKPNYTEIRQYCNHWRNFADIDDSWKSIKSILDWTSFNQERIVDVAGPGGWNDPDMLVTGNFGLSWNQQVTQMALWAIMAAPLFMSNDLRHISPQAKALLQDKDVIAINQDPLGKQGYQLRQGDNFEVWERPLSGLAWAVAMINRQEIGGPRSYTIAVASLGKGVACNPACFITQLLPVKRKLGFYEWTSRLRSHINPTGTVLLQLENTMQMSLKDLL
Procedure, shortened: (§1)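 Transient HEK-293 expression of mutant α-Gal A; ±migalastat 17 nM–1 mM, 4–5 d; lysate α-Gal A by 4-MU-α-Gal fluorescence or western blot.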

[5] = target: T2, α-Gal A mutant form p.Asp244Asn (c.730 G > A) (Homo sapiens, UniProt P06280, D244N); experiment: as above; format: cell-based
T2 construct: expressed in transfected cells; host or cells: HEK-293
T2 sequence (P06280 32-429 D244N): T1 sequence (P06280 32-429 I270T) with D213N, T239I
Procedure, shortened: as §1

[6] = target: T3, α-Gal A mutant form p.Cys174Arg (c.520 T > C) (Homo sapiens, UniProt P06280, C174R); experiment: as above; format: cell-based
T3 construct: expressed in transfected cells; host or cells: HEK-293
T3 sequence (P06280 32-429 C174R): T1 sequence (P06280 32-429 I270T) with C143R, T239I
Procedure, shortened: as §1

[7] = Phase 3 study, ERT-naïve Fabry patients: safety analysis and adverse events
Experimental: as §2, §3

[8] = overall amenable population, baseline to month 24
[9] = +10 μM migalastat, HEK-293 cell lysate, mean ± SEM, n = 20
[10] = HEK293, 10 μM migalastat minus baseline, read-out: Absolute increase at 10 μM (% WT)
[11] = open-label-extension, 6/57 patients

OC[C@H]1NC[C@H](O)[C@@H](O)[C@H]1O [migalastat]
classic male patients with diarrhea at baseline achieving MCID reduction of 0.33 in GSRS-D ([1]; 7 of the 8 patients, by 24 months): 88%
mean (SD) change from baseline (or month 6) in diarrhea symptoms (GSRS-D) ([1]; classic male patients, by 24 months): −0.9 (1.75)
mean (SD) change in GSRS-D ([1]; other patients, month 24): −0.5 (1.01)
mean change in GSRS-D ([1]; month 6): −0.3
mean change in GSRS-D ([1]; month 24): −0.5
mean (SD) annualized rate of change in eGFRCKD-EPI ([2]; classic male subgroup, baseline (or month 6 for patients randomized to placebo) to month 24, 150 mg migalastat hydrochloride every other day): −0.3 (3.76) mL/min/1.73 m^2
mean (SD) annualized rate of change in mGFRiohexol ([2]; classic males, baseline (or month 6) to month 24): −3.0 (6.04) mL/min/1.73 m^2
median change in mGFRiohexol ([2]; classic males, baseline to month 24): -1.03 mL/min/1.73 m²
reduction in mGFRiohexol in one classic patient ([2]; one classic patient, month 6 to month 24): -16 mL/min/1.73 m²
mean (SD) annualized rate of change in eGFRCKD-EPI ([2]; other patients subgroup, baseline (or month 6) to month 24): −0.3 (4.47) mL/min/1.73 m^2
mean (SD) annualized rate of change in mGFRiohexol ([2]; other patients, baseline (or month 6) to month 24): −1.0 (6.66) mL/min/1.73 m^2
median change in mGFRiohexol ([2]; other patients, baseline to month 24): -0.34 mL/min/1.73 m²
annualized change in eGFRCKD-EPI [2, 8]: −0.3 (0.66) mL/min/1.73 m^2
annualized change in mGFRiohexol [2, 8]: −1.5 (1.33) mL/min/1.73 m^2
deaths [3]: No deaths were reported
α-Gal A activity at 10 μM (fold over baseline) ([4]; 10 μM migalastat): 6.73 fold over baseline
+Migalastat α-Gal A activity [4, 9]: 12416 ± 377 nmol/mg/h
+Migalastat α-Gal A activity % WT [4, 9]: 42.8 ± 3.0 % WT
activation at 10 µM [4, 10]: 36.5%
α-Gal A activity at 10 μM (fold over baseline) ([5]; 10 μM migalastat): 1.58 fold over baseline
+Migalastat α-Gal A activity [5, 9]: 16321 ± 402 nmol/mg/h
+Migalastat α-Gal A activity % WT [5, 9]: 48.7 ± 1.7 % WT
activation at 10 µM [5, 10]: 17.8%
α-Gal A activity at 10 μM (fold over baseline) ([6]; 10 μM migalastat): 3.53 fold over baseline
+Migalastat α-Gal A activity [6, 9]: 16505 ± 393 nmol/mg/h
+Migalastat α-Gal A activity % WT [6, 9]: 51.6 ± 2.0 % WT
activation at 10 µM [6, 10]: 37.4%
patients with nasopharyngitis ([7]; Stage 1, 6/34 patients receiving migalastat): 18%
patients with headache ([7]; Stage 1, 12/34 patients receiving migalastat): 35%
patients experiencing serious adverse events ([7]; Stage 1, migalastat group): 2 patients
patients experiencing serious adverse events ([7]; Stage 2): 5 patients
patients with procedural pain (related to kidney biopsies) ([7]; Stage 2, 7/63 patients): 11%
patients with headache ([7]; Stage 2, 9/63 patients): 14%
end-stage renal disease, cardiac death, stroke ([7]; as defined in Banikazemi et al.): no progression to end-stage renal disease, no cardiac death and no stroke
patients who discontinued migalastat due to serious adverse events ([7]; both deemed unrelated to migalastat): Two
serious adverse events assessed as possibly related to migalastat by the investigator ([7]; fatigue and paresthesia, same patient, months 12-24, resolved): Two
adverse events leading to migalastat discontinuation ([7]; human, in vivo): No adverse events led to migalastat discontinuation
vital sign, physical findings, laboratory, and ECG parameters ([7]; human, in vivo): did not reveal any clinically relevant effect
transient ischemic attack ([7]; judged unrelated to migalastat): single case
severity of adverse events ([7]; most adverse events): mild or moderate in severity
patients experiencing serious adverse events ([7]; open-label-extension): 11 patients
patients with (treatment-emergent) proteinuria ([7]; open-label-extension (months 12-24), 9/57 patients): 16%
patients with bronchitis [7, 11]: 11%
patients with headache [7, 11]: 11%
patients in whom 24-hour urine protein remained stable during migalastat treatment ([7]; patients with baseline proteinuria <300 mg/24-h): 23/28
